The compounds below were run on KB (assay: Cytotoxicity against human KB cells by MTT assay).
Format: functional, cell-based

Q: Which IC50 does the source give for `C[C@H]1O[C@@H](OC[C@H]2O[C@@H](O[C@H]3CC[C@]4(C)[C@H]5CC=C6[C@@H]7CC(C)(C)[C@@H](O)C[C@]7(C(=O)O)[C@H](O)C[C@@]6(C)[C@]5(C)CC[C@H]4C3(C)C)[C@H](O)[C@@H](O)[C@@H]2O)[C@H](O[C@@H]2OC[C@@H](O)[C@H](O)[C@H]2O)[C@@H](O)[C@H]1O` [PROSAPOGENIN 1] here?
A: > 10 µg/mL

Q: How did the IC50 turn out when `C=C[C@](C)(CC/C=C(\C)C(=O)O[C@H]1C[C@]2(C(=O)O[C@@H]3O[C@H](CO)[C@@H](O)[C@H](O)[C@H]3O[C@@H]3O[C@@H](C)[C@H](O[C@@H]4O[C@@H](CO)[C@H](O)[C@H]4O)[C@@H](O[C@@H]4O[C@H](CO)[C@@H](O)[C@H](O)[C@H]4O)[C@H]3O)CC[C@]3(C)C(=CC[C@@H]4[C@@]5(C)CC[C@H](O[C@@H]6O[C@H](CO[C@@H]7O[C@H](C)[C@H](O)[C@H](O)[C@H]7O[C@@H]7OC[C@@H](O)[C@H](O)[C@H]7O)[C@@H](O)[C@H](O)[C@H]6OC6O[C@H](CO)[C@@H](O)[C@H](O)[C@H]6O)C(C)(C)[C@@H]5CC[C@]43C)[C@@H]2CC1(C)C)O[C@@H]1O[C@H](C)[C@@H](O)[C@H](O)[C@H]1O` (stereo not given in full) [PROSAPOGENIN 12] was run?
A: > 10 µg/mL

Q: Which IC50 does the source give for `C[C@H]1O[C@@H](OC[C@H]2O[C@@H](O[C@H]3CC[C@]4(C)[C@H]5CC=C6[C@@H]7CC(C)(C)[C@@H]8C[C@]7(C(=O)O8)[C@H](O)C[C@@]6(C)[C@]5(C)CC[C@H]4C3(C)C)[C@H](O)[C@@H](O)[C@@H]2O)[C@H](O[C@@H]2OC[C@@H](O)[C@H](O)[C@H]2O)[C@@H](O)[C@H]1O` [PORSAPOGENIN 6] here?
A: > 10 µg/mL

Q: `C[C@H]1O[C@@H](OC[C@H]2O[C@@H](O[C@H]3CC[C@]4(C)[C@H]5CC=C6[C@@H]7CC(C)(C)[C@@H]8C[C@]7(C(=O)O8)[C@H](O)C[C@@]6(C)[C@]5(C)CC[C@H]4C3(C)C)[C@H](O[C@@H]3O[C@H](CO)[C@@H](O)[C@H](O)[C@H]3O)[C@@H](O)[C@@H]2O)[C@H](O[C@@H]2OC[C@@H](O)[C@H](O)[C@H]2O)[C@@H](O)[C@H]1O` [PORSAPOGENIN 5] was tested. Which IC50 did it give?
A: > 10 µg/mL

Q: `CC(=O)N[C@H]1[C@H](O[C@H]2CC[C@]3(C)[C@H]4CC=C5[C@@H]6CC(C)(C)[C@@H]7C[C@]6(C(=O)O7)[C@H](O)C[C@@]5(C)[C@]4(C)CC[C@H]3C2(C)C)O[C@H](CO[C@@H]2OC[C@H](O)[C@H](O)[C@H]2O[C@@H]2OC[C@@H](O)[C@H](O)[C@H]2O)[C@@H](O)[C@@H]1O` [PROSAPOGENIN 4] was tested. Which IC50 did it give?
A: > 10 µg/mL

Q: For `C=C[C@](C)(CC/C=C(\CO)C(=O)O[C@H]1C[C@]2(C(=O)O[C@@H]3O[C@H](CO)[C@@H](O)[C@H](O)[C@H]3O[C@@H]3O[C@@H](C)[C@H](O[C@@H]4O[C@@H](CO)[C@H](O)[C@H]4O)[C@@H](O[C@@H]4O[C@H](CO)[C@@H](O)[C@H](O)[C@H]4O)[C@H]3O)[C@H](O)C[C@]3(C)C(=CC[C@@H]4[C@@]5(C)CC[C@H](O[C@@H]6O[C@H](CO[C@@H]7O[C@H](C)[C@H](O)[C@H](O)[C@H]7O[C@@H]7OC[C@@H](O)[C@H](O)[C@H]7O)[C@@H](O)[C@H](O)[C@H]6O)C(C)(C)[C@@H]5CC[C@]43C)[C@@H]2CC1(C)C)O[C@@H]1O[C@H](C)[C@@H](O)[C@H](O)[C@H]1O` [PROSAPOGENIN 10], which IC50 is on record?
A: 2000 nM

Q: `CC(=O)N[C@H]1[C@H](O[C@H]2CC[C@]3(C)[C@H]4CC=C5[C@@H]6CC(C)(C)[C@@H]7C[C@]6(C(=O)O7)[C@H](O)C[C@@]5(C)[C@]4(C)CC[C@H]3C2(C)C)O[C@H](CO[C@@H]2O[C@H](C)[C@H](O)[C@H](O)[C@H]2O[C@@H]2OC[C@@H](O)[C@H](O)[C@H]2O)[C@@H](O)[C@@H]1O` [PORSAPOGENIN 7] was tested. Which IC50 did it give?
A: > 10 µg/mL

Q: `C=C[C@](C)(CC/C=C(\C)C(=O)O[C@H]1C[C@]2(C(=O)O[C@@H]3O[C@H](CO)[C@@H](O)[C@H](O)[C@H]3O[C@@H]3O[C@@H](C)[C@H](O[C@@H]4O[C@@H](CO)[C@H](O)[C@H]4O)[C@@H](O[C@@H]4O[C@H](CO)[C@@H](O)[C@H](O)[C@H]4O)[C@H]3O)[C@H](O)C[C@]3(C)C(=CC[C@@H]4[C@@]5(C)CC[C@H](O[C@@H]6O[C@H](CO[C@@H]7O[C@H](C)[C@H](O)[C@H](O)[C@H]7O[C@@H]7OC[C@@H](O)[C@H](O)[C@H]7O)[C@@H](O)[C@H](O)[C@H]6O)C(C)(C)[C@@H]5CC[C@]43C)[C@@H]2CC1(C)C)O[C@@H]1O[C@H](C)[C@@H](O)[C@H](O)[C@H]1O` [PORSAPOGENIN 9] was tested. Which IC50 did it give?
A: 1600 nM

Q: For `CC(=O)N[C@H]1[C@H](O[C@H]2CC[C@]3(C)[C@H]4CC=C5[C@@H]6CC(C)(C)[C@@H](O)C[C@]6(C(=O)O)[C@H](O)C[C@@]5(C)[C@]4(C)CC[C@H]3C2(C)C)O[C@H](CO[C@@H]2OC[C@H](O)[C@H](O)[C@H]2O[C@@H]2OC[C@@H](O)[C@H](O)[C@H]2O)[C@@H](O)[C@@H]1O` [PROSAPOGENIN 2], which IC50 is on record?
A: > 10 µg/mL

Q: How did the IC50 turn out when `C=C[C@](C)(CC/C=C(\C)C(=O)O[C@H]1C[C@]2(C(=O)O[C@@H]3O[C@H](CO)[C@@H](O)[C@H](O)[C@H]3O[C@@H]3O[C@@H](C)[C@H](O[C@@H]4O[C@@H](CO)[C@H](O)[C@H]4O)[C@@H](O[C@@H]4O[C@H](CO)[C@@H](O)[C@H](O)[C@H]4O)[C@H]3O)CC[C@]3(C)C(=CC[C@@H]4[C@@]5(C)CC[C@H](O[C@@H]6O[C@H](CO[C@@H]7O[C@H](C)[C@H](O)[C@H](O)[C@H]7O[C@@H]7OC[C@@H](O)[C@H](O)[C@H]7O)[C@@H](O)[C@H](O)[C@H]6O)C(C)(C)[C@@H]5CC[C@]43C)[C@@H]2CC1(C)C)O[C@@H]1O[C@H](C)[C@@H](O)[C@H](O)[C@H]1O` [PROSAPOGENIN 11] was run?
A: 1600 nM

Q: How did the IC50 turn out when `C=C[C@](C)(CC/C=C(\C)C(=O)O[C@H]1C[C@]2(C(=O)O[C@@H]3O[C@H](CO)[C@@H](O)[C@H](O)[C@H]3O[C@@H]3O[C@@H](C)[C@H](O[C@@H]4O[C@@H](CO)[C@H](O)[C@H]4O)[C@@H](O[C@@H]4O[C@H](CO)[C@@H](O)[C@H](O)[C@H]4O)[C@H]3O)[C@H](O)C[C@]3(C)C(=CC[C@@H]4[C@@]5(C)CC[C@H](O[C@@H]6O[C@H](CO[C@@H]7O[C@H](C)[C@H](O)[C@H](O)[C@H]7O[C@@H]7OC[C@@H](O)[C@H](O)[C@H]7O)[C@@H](O)[C@H](O)[C@H]6O[C@@H]6O[C@H](CO)[C@@H](O)[C@H](O)[C@H]6O)C(C)(C)[C@@H]5CC[C@]43C)[C@@H]2CC1(C)C)O[C@@H]1O[C@H](C)[C@@H](O)[C@H](O)[C@H]1O` [PORSAPOGENIN 8] was run?
A: 4500 nM

Q: How did the IC50 turn out when `C=C[C@](C)(CC/C=C(\C)C(=O)O[C@H]1[C@H](O)[C@@H](O)[C@H](O[C@](C)(C=C)CC/C=C(\C)C(=O)O[C@H]2C[C@]3(C(=O)O[C@@H]4O[C@H](CO)[C@@H](O)[C@H](O)[C@H]4O[C@@H]4O[C@@H](C)[C@H](O[C@@H]5O[C@@H](CO)[C@H](O)[C@H]5O)[C@@H](O[C@@H]5O[C@H](CO)[C@@H](O)[C@H](O)[C@H]5O)[C@H]4O)[C@H](O)C[C@]4(C)C(=CC[C@@H]5[C@@]6(C)CC[C@H](O[C@@H]7O[C@H](CO[C@@H]8O[C@H](C)[C@H](O)[C@H](O)[C@H]8O[C@@H]8OC[C@@H](O)[C@H](O)[C@H]8O)[C@@H](O)[C@H](O)[C@H]7NC(C)=O)C(C)(C)[C@@H]6CC[C@]54C)[C@@H]3CC2(C)C)O[C@@H]1C)O[C@@H]1O[C@H](C)[C@@H](O)[C@H](O)[C@H]1O` [JULIBROSIDE III] was run?
A: 900 nM

Q: `CC1(C)C[C@H]2C3=CC[C@@H]4[C@@]5(C)CC[C@H](O[C@@H]6O[C@H](CO[C@@H]7OC[C@H](O)[C@H](O)[C@H]7O[C@@H]7OC[C@@H](O)[C@H](O)[C@H]7O)[C@@H](O)[C@H](O)[C@H]6O)C(C)(C)[C@@H]5CC[C@@]4(C)[C@]3(C)C[C@@H](O)[C@@]23C[C@@H]1OC3=O` [PROSAPOGENIN 3] was tested. Which IC50 did it give?
A: > 10 µg/mL

Q: How did the IC50 turn out when `C=C[C@](C)(CC/C=C(\C)C(=O)O[C@H]1[C@H](O)[C@@H](O)[C@H](O[C@](C)(C=C)CC/C=C(\C)C(=O)O[C@H]2C[C@]3(C(=O)O[C@@H]4O[C@H](CO)[C@@H](O)[C@H](O)[C@H]4O[C@@H]4O[C@@H](C)[C@H](O[C@@H]5O[C@@H](CO)[C@H](O)[C@H]5O)[C@@H](O[C@@H]5O[C@H](CO)[C@@H](O)[C@H](O)[C@H]5O)[C@H]4O)[C@H](O)C[C@]4(C)C(=CC[C@@H]5[C@@]6(C)CC[C@H](O[C@@H]7O[C@H](CO[C@@H]8O[C@H](C)[C@H](O)[C@H](O)[C@H]8O[C@@H]8OC[C@@H](O)[C@H](O)[C@H]8O)[C@@H](O)[C@H](O)[C@H]7O)C(C)(C)[C@@H]6CC[C@]54C)[C@@H]3CC2(C)C)O[C@@H]1C)O[C@@H]1O[C@H](C)[C@@H](O)[C@H](O)[C@H]1O` [JULIBROSIDE II] was run?
A: > 10 µg/mL

Q: `C=C[C@](C)(CC/C=C(\C)C(=O)O[C@H]1[C@H](O)[C@@H](O)[C@H](O[C@](C)(C=C)CC/C=C(\C)C(=O)O[C@H]2C[C@]3(C(=O)O[C@@H]4O[C@H](CO)[C@@H](O)[C@H](O)[C@H]4O[C@@H]4O[C@@H](C)[C@H](O[C@@H]5O[C@@H](CO)[C@H](O)[C@H]5O)[C@@H](O[C@@H]5O[C@H](CO)[C@@H](O)[C@H](O)[C@H]5O)[C@H]4O)[C@H](O)C[C@]4(C)C(=CC[C@@H]5[C@@]6(C)CC[C@H](O[C@@H]7O[C@H](CO[C@@H]8O[C@H](C)[C@H](O)[C@H](O)[C@H]8O[C@@H]8OC[C@@H](O)[C@H](O)[C@H]8O)[C@@H](O)[C@H](O)[C@H]7O[C@@H]7O[C@H](CO)[C@@H](O)[C@H](O)[C@H]7O)C(C)(C)[C@@H]6CC[C@]54C)[C@@H]3CC2(C)C)O[C@@H]1C)O[C@@H]1O[C@H](C)[C@@H](O)[C@H](O)[C@H]1O` [JULIBROSIDE I] was tested. Which IC50 did it give?
A: > 10 µg/mL
